In patent US9617289B2, “RSV antiviral compounds” (JANSSEN R&D IRELAND, priority 2012, dated 2017):

Test system: rgRSV224 virus
Assay: Antiviral activity: inhibition of rgRSV224 (GFP-expressing RSV) replication in HeLa cells
Type: cell-based, respiratory syncytial virus
Conditions: human respiratory syncytial virus, HeLa, 72 h, read-out: pEC50, rgRSV224 (MOI=0.02) in HeLa cells, GFP expression three days post-virus exposure (converted)
Protocol: Black 96-well clear-bottom microtiter plates (Corning, Amsterdam, The Netherlands) were filled in duplicate using a customized robot system with serial 4-fold dilutions of compound in a final volume of 50 μl culture medium [RPMI medium without phenol red, 10% FBS, 0.04% gentamycin (50 mg/ml) and 0.5% DMSO]. Then, 100 μl of a HeLa cell suspension (5×10^4 cells/ml) in culture medium was added to each well followed by the addition of 50 μl rgRSV224 (MOI=0.02) virus in culture medium using a multidrop dispenser (Thermo Scientific, Erembodegem, Belgium). rgRSV224 virus is an engineered virus that includes an additional GFP gene (Hallak et al, 2000) and was in-licensed from the NIH (Bethesda, Md., USA). Medium, virus- and mock-infected controls were included in each test. Cells were incubated at 37° C. in a 5% CO2 atmosphere. Three days post-virus exposure, viral replication was quantified by measuring GFP expression in the cells by a MSM laser microscope (Tibotec, Beerse, Belgium). The EC50 was defined as the 50% inhibitory concentration for GFP expression. In parallel, compounds were incubated for three days in a set of white 96-well microtitier plates (Corning) and the cytotoxicity of compounds in HeLa cells was determined by measuring the ATP content of the cells using the ATPlite kit (PerkinElmer, Zaventem, Belgium) according to the manufacturer's instructions. The CC50 was defined as the 50% concentration for cytotoxicity. SI is calculated as CC50/EC50.

SMILES | EC50 [nM]
CC(C)(C)OC(=O)N1CCC2(CC1)C(=O)N(Cc1nc3cc(Cl)ccc3n1CCCS(C)(=O)=O)c1ccccc12 [Compound 39, tert-butyl 1-((5-chloro-1-(3-(methylsulfonyl)propyl)-1H-benzo[d]imidazol-2-yl)methyl)-2-oxospiro[indoline-3,4′-piperidine]-1′-carboxylate] | 0.631
CS(=O)(=O)CCCn1c(CN2C(=O)C3(CCOCC3)c3ccccc32)nc2cc(Cl)ccc21 [Compound 40, 1-((5-chloro-1-(3-(methylsulfonyl)propyl)-1H-benzo[d]-imidazol-2-yl)methyl)-2′,3′,5′,6′-tetrahydrospiro[indoline-3,4′-pyran]-2-one] | 2.51
CS(=O)(=O)CCCn1c(CN2C(=O)C3(CCOCC3)c3cnccc32)nc2cc(Cl)ccc21 [Compound 41, 1-((5-chloro-1-(3-(methylsulfonyl)propyl)-1H-benzo[d]-imidazol-2-yl)methyl)-2,3,5,6-tetrahydrospiro[pyran-4,3′-pyrrolo[3,2-c]pyridin]-2′(1′H)-one] | 45.7
CC(=O)N1CCC2(CC1)C(=O)N(Cc1nc3cc(Cl)ccc3n1CCCS(C)(=O)=O)c1cnccc12 [Compound 42, 1-acetyl-1′-((5-chloro-1-(3-(methylsulfonyl)propyl)-1H-benzo[d]imidazol-2-yl)methyl)spiro[piperidine-4,3′-pyrrolo-[2,3-c]pyridin]-2′(1′H)-one] | < 0.158
O=C(Oc1ccc(F)cc1)N1CC2(C1)C(=O)N(Cc1nc3cc(Cl)ccc3n1CCCC(F)(F)F)c1ccccc12 [Compound 43, 4-fluorophenyl 1′-((5-chloro-1-(4,4,4-trifluorobutyl)-1H-benzo[d]imidazol-2-yl)methyl)-2′-oxospiro[azetidine-3,3′-indoline]-1-carboxytale] | 0.251
CC(C)(C)OC(=O)N1CC2(C1)C(=O)N(Cc1nc3cc(Cl)ccc3n1CCCC(F)(F)F)c1ccccc12 [Compound 44, tert-butyl 1′-((5-chloro-1-(4,4,4-trifluorobutyl)-1H-benzo[d]imidazol-2-yl)methyl)-2′-oxospiro[azetidine-3,3′-indoline]-1-carboxylate] | 0.251
CC(C)COC(=O)N1CC2(C1)C(=O)N(Cc1nc3cc(Cl)ccc3n1CCCC(F)(F)F)c1ccccc12 [Compound 45, isobutyl 1′-((5-chloro-1-(4,4,4-trifluorobutyl)-1H-benzo[d]-imidazol-2-yl)methyl)-2′-oxospiro[azetidine-3,3′-indoline]-1-carboxylate] | 0.398
O=C1N(Cc2nc3cc(Cl)ccc3n2CCCC(F)(F)F)c2ccccc2C12CNC2 [Compound 46, 1′-((5-chloro-1-(4,4,4-trifluorobutyl)-1H-benzo[d]imidazol-2-yl)methyl)spiro[azetidine-3,3-indolin]-2′-one] | 0.631
O=C(OC1CCCC1)N1CCC2(CC1)C(=O)N(Cc1nc3cc(Cl)ccc3n1CCCC(F)(F)F)c1ccccc12 [Compound 47, Cyclopentyl 1-((5-chloro-1-(4,4,4-trifluorobutyl)-1H-benzo[d]imidazol-2-yl)methyl)-2-oxospiro[indoline-3,4′-piperidine]-1′-carboxylate] | 1.58
CC(C)(C)OC(=O)N1CCC2(CC1)C(=O)N(Cc1nc3cc(Cl)ccc3n1CCCC(F)(F)F)c1ccccc12 [Compound 48] | 2.51
O=C1N(Cc2nc3cc(Cl)ccc3n2CCCC(F)(F)F)c2ccccc2C12CCNCC2 [Compound 49, 1-((5-chloro-1-(4,4,4-trifluorobutyl)-1H-benzo[d]imidazol-2-yl)methyl) spiro[indoline-3,4′-piperidin]-2-one] | 5.01
O=C(OCc1ccccc1)N1CCC2(CC1)C(=O)N(Cc1nc3cc(Cl)ccc3n1CCCC(F)(F)F)c1ccccc12 [Compound 50, benzyl 1-((5-chloro-1-(4,4,4-trifluorobutyl)-1H-benzo[d]-imidazol-2-yl)methyl)-2-oxospiro[indoline-3,4′-piperidine]-1′-carboxylate] | 10
O=C1N(Cc2nc3cc(Cl)ccc3n2CCCC(F)(F)F)c2ccccc2C12CCN(Cc1ccccc1)CC2 [Compound 51, 1′-benzyl-1-((5-chloro-1-(4,4,4-trifluorobutyl)-1H-benzo[d]-imidazol-2-yl)methyl)spiro[indoline-3,4′-piperidin]-2-one] | 63.1
O=C1N(Cc2nc3cc(Cl)ccc3n2CCCC(F)(F)F)c2ccccc2C12CCOCC2 [Compound 52, 1-((5-chloro-1-(4,4,4-trifluorobutyl)-1H-benzo[d]imidazol-2-yl)methyl)-2′,3′,5′,6′-tetrahydrospiro[indoline-3,4′-pyran]-2-one] | 2.51
CC(C)(C)OC(=O)N1CCC2(CC1)C(=O)N(Cc1nc3cc(Cl)ccc3n1CCCC#N)c1cnccc12 [Compound 53, tert-butyl 1′-((5-chloro-1-(3-cyanopropyl)-1H-benzo[d]-imidazol-2-yl)methyl)-2′-oxo-1′,2′-dihydrospiro[piperidine-4,3′-pyrrolo[2,3-c]pyridine]-1-carboxylate] | < 0.158
CS(=O)(=O)CCCn1c(CN2C(=O)C3(CCCC3)c3ccncc32)cc2cc(Cl)ccc21 [Compound 54, 1′-({5-chloro-1-[3-(methylsulfonyl)propyl]-1H-indol-2-yl}methyl)spiro [cyclopentane-1,3′-pyrrolo[2,3-c]pyridin]-2′(1′H)-one] | 1.58
CS(=O)(=O)CCCn1c(CN2C(=O)C3(CCOCC3)c3cnccc32)cc2cc(Cl)ccc21 [Compound 57] | 83.2
CC(C)(C)OC(=O)N1CC2(C1)C(=O)N(Cc1cc3cc(Cl)ccc3n1CCCC#N)c1ccccc12 [Compound 58, tert-butyl 1′-{[5-chloro-1-(3-cyanopropyl)-1H-indol-2-yl]-methyl}-2′-oxo-1′,2′-dihydro-1H-spiro[azetidine-3,3′-indole]-1-carboxylate] | < 0.2
N#CCCCn1c(CN2C(=O)C3(CNC3)c3ccccc32)cc2cc(Cl)ccc21 [Compound 59, 4-{5-chloro-2-[(2′-oxospiro[azetidine-3,3′-indol]-1′(2′H )-yl)-methyl]-1H-indol-1-yl}butanenitrile] | 5.01
COC(=O)N1CC2(C1)C(=O)N(Cc1cc3cc(Cl)ccc3n1CCCC#N)c1ccccc12 [Compound 60, 1′-{[5-chloro-1-(3-cyanopropyl)-1H-indol-2-yl]methyl}-2′-oxo-1′,2′-dihydro-1H-spiro[azetidine-3,3′-indole]-1-carboxylate] | 0.251
N#CCCCn1c(CN2C(=O)C3(CN(S(=O)(=O)C4CC4)C3)c3ccccc32)cc2cc(Cl)ccc21 [Compound 61, 4-(5-chloro-2-{[1-(cyclopropylsulfonyl)-2′-oxospiro-[azetidine-3,3′-indol]-1′(2′H)-yl]methyl}-1H-indol-1-yl)-butanenitrile] | 0.398
CC(C)(C)OC(=O)N1CCC2(CC1)C(=O)N(Cc1cc3cc(Cl)ccc3n1CCCC#N)c1cnccc12 [Compound 63, tert-butyl 1′-((5-chloro-1-(3-cyanopropyl)-1H-indol-2-yl)-methyl)-2′-oxo-1′,2′-dihydrospiro[piperidine-4,3′-pyrrolo-[2,3-c]pyridine]-1-carboxylate] | 0.158
CC(=O)N1CCC2(CC1)C(=O)N(Cc1cc3cc(Cl)ccc3n1CCCC#N)c1cnccc12 [Compound 64, 4-(2-((1-acetyl-2′-oxospiro[piperidine-4,3′-pyrrolo[2,3-c]-pyridin]-1′(2′H)-yl)methyl)-5-chloro-1H-indol-1-yl)butane-nitrile] | 0.251
O=C1N(Cc2nc3nc(Cl)ccc3n2CCCC(F)(F)F)c2cnccc2C12CCCC2 [Compound 65, 1′-((5-chloro-1-(4,4,4-trifluorobutyl)-1H-imidazo[4,5-b]-pyridin-2-yl)methyl)spiro[cyclopentane-l,3′-pyrrolo[2,3-c]-pyridin]-2′(1′H)-one] | 0.631
CC(C)(C)OC(=O)N1CCC2(CC1)C(=O)N(Cc1nc3ncccc3n1CCCC(F)(F)F)c1cnccc12 [Compound 66, tert-butyl-2′-oxo-1′-((1-(4,4,4-trifluorobutyl)-1H-imidazo-[4,5-b]pyridine-2-yl)methyl)-1′,2′-dihydrospiro[piperidine-4,3′-pyrrolo[2,3-c]pyridine]-1-carboxylate] | 3.16
CC(C)(C)OC(=O)N1CCC2(CC1)C(=O)N(Cc1nc3nc(Cl)ccc3n1CCCC(F)(F)F)c1cnccc12 [Compound 68, tert-butyl-1′-((5-chloro-1-(4,4,4-trifluorobutyl)-1H-imidazo-[4,5-b]pyridin-2-yl)methyl)-2′-oxo-1′,2′-dihydrospiro-[piperidine-4,3′-pyrrolo[2,3-c]pyridine]-1-carboxylate] | 0.501

Same assay, conditions: rgRSV224 (MOI=0.02) in HeLa cells, GFP expression three days post-virus exposure

SMILES | pEC50
O=C1N(Cc2nc3nc(Cl)ccc3n2CCCC(F)(F)F)c2cnccc2C12CCOCC2 [Compound 67, 1′-((5-chloro-1-(4,4,4-trifluorobutyl)-1H-imidazo[4,5-b]-pyridin-2-yl)methyl)-2,3,5,6-tetrahydrospiro[pyran-4,3′-pyrrolo[2,3-c]pyridin]-2′(1′H)-one] | 10.3
